Data on one compound can be found in patent US10646472B2, “Composition comprising a photosensitive compound in a polymeric nanoparticle, and a method of using the composition” (Oregon State University, priority 2015, dated 2020).

The data set has as its system Chinese Hamster Ovary (CHO-K1) cells. The experiment in a line: In vitro micronucleus assay (genotoxicity). It is filed as cell-based. As to conditions: SiNc-NP 90 μg/mL, 24 hours; MMS 50 μg/mL positive control. The protocol: Genotoxicity describes the property of chemical agents that damages the genetic information within a cell causing mutations, which may lead to cancer. An in vitro micronucleus assay was used to determine the genotoxicity of SiNc-NP on Chinese Hamster Ovary (CHO-K1) cells. Cells were treated with SiNc-NP (90 μg/mL) for the experiment group, fresh media for negative control, or methyl methanesulfonate (MMS, 50 μg/mL) for a positive control.
A quantitative analysis was then performed to evaluate the genotoxicity. The analysis counted the number of micronuclei per 1000 cells.

As for `COS(C)(=O)=O` [MMS, methyl methanesulfonate], the “appearance of cell nuclei (fluorescence imaging, DAPI)” value is listed as “noticeable numbers of small buds/fragments appeared on or near cell nuclei”.
